This passage reports IC50 results from patent US12371428B2 (Exelixis, Inc., priority 2019, dated 2025).

Each structure is given as a SMILES string. Where only a bound is given, the exact number is not on record here.

Experiment [1] concerns the target Met (phospho-Met, HGF-stimulated PC-3 prostate cancer cells) (Homo sapiens (Human), UniProt P08581). Briefly: Met autophosphorylation ELISA in PC-3 cells (Example F). Conditions: cellular activity; Met autophosphorylation ELISA in PC-3 cells; read-out: c-Met IC50. The format is cell-based. The method, boiled down:
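PC-3 cells, serum-starved 3 h, were treated with compounds (8-point dose curve, 0.3% DMSO final) for 1 h, then stimulated with 100 ng/mL recombinant human HGF for 10 min. Lysate phospho-Met (panTyr) was quantified by sandwich ELISA; IC50 from 4-parameter logistic fit.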
(In general: In an ELISA, binding on a coated surface is turned into a signal by an enzyme label.)

Experiment [2] concerns the target Mer (phospho-Mer, MERTK-transfected 293A cells) (Homo sapiens (Human), UniProt Q12866). Put plainly: Mer autophosphorylation ELISA in transient transfected 293A cells (Example H). The format is cell-based. Particulars: cellular activity; Mer autophosphorylation ELISA in transient transfected 293A cells. Put shortly: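 IC50 from phospho-Mer ELISA of MERTK-transfected 293A cell lysates after 1 h treatment with serially diluted compound in serum-free medium.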

Sequence of Met (phospho-Met, HGF-stimulated PC-3 prostate cancer cells) (P08581 25-1390): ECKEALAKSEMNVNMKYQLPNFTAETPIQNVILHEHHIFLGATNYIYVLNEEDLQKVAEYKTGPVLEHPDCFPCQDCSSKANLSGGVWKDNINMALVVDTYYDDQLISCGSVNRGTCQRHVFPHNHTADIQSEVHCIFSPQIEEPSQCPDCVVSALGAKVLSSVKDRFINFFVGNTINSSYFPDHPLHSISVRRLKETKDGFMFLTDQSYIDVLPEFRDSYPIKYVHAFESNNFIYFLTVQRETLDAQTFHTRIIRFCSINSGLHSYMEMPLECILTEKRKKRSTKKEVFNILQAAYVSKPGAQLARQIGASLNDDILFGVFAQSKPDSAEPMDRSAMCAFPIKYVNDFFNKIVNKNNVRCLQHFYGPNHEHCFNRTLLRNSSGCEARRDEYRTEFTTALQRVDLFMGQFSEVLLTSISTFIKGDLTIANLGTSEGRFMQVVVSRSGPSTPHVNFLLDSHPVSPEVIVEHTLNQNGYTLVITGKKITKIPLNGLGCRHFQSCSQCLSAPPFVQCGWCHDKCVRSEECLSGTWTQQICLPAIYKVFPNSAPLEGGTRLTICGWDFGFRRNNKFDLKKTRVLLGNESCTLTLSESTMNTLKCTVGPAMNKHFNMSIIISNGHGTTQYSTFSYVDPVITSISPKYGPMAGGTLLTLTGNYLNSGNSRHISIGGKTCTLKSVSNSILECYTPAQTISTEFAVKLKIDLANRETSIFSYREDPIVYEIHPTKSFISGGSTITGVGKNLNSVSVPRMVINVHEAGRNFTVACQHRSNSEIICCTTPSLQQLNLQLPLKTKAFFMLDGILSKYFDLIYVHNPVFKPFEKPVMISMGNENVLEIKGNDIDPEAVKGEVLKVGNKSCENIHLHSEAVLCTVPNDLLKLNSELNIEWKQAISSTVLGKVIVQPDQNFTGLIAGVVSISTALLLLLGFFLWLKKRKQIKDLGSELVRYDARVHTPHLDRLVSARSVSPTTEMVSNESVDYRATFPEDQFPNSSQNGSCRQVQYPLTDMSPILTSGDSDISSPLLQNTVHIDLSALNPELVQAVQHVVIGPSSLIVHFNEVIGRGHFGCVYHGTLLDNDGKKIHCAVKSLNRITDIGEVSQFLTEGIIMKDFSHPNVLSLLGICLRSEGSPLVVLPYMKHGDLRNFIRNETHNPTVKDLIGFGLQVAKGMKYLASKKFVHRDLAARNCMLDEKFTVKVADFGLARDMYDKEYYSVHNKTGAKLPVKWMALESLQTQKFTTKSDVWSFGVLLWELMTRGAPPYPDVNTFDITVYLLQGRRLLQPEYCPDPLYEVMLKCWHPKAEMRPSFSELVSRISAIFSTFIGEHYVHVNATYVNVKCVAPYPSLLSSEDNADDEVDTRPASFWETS
Sequence of Mer (phospho-Mer, MERTK-transfected 293A cells) (Q12866 21-999): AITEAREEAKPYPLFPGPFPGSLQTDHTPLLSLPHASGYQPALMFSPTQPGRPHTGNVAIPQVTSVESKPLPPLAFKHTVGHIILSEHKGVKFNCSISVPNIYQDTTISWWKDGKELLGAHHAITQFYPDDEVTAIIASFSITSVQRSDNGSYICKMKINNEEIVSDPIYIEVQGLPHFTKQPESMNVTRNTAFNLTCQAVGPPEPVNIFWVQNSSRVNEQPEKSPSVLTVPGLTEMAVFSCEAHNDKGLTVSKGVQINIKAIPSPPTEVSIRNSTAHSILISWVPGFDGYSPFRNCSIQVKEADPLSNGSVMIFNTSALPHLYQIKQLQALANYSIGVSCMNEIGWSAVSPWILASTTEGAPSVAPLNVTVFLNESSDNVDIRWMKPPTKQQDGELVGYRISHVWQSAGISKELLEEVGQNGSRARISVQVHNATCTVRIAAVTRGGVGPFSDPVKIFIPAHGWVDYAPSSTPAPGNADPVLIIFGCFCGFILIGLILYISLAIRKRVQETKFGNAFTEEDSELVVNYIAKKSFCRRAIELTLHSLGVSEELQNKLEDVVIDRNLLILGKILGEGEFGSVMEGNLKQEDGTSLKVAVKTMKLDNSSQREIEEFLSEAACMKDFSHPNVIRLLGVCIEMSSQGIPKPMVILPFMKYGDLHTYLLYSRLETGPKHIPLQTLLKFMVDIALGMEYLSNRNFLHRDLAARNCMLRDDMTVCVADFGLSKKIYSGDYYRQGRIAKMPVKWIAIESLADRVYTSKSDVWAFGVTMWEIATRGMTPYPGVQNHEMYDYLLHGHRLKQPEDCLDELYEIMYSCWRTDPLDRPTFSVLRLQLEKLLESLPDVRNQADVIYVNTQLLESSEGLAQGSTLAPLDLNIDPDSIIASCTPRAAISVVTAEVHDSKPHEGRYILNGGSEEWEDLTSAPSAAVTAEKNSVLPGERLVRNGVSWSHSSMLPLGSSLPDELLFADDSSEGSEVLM

With `COc1cc2nccc(Oc3ccc(NC(=O)c4cnc(C)c(-c5ccc(F)cc5C)c4O)cc3F)c2nc1OC(C)C` [Compound 416, N-[3-fluoro-4-[(7-methoxy-6-propan-2-yloxy-1,5-naphthyridin-4-yl)oxy]phenyl]-5-(4-fluoro-2-methylphenyl)-4-hydroxy-6-methylpyridine-3-carboxamide], the concentration for half-maximal inhibition (IC50) in experiment [1] and in experiment [2] was < 100 nM throughout.

Regarding `Cc1cc(F)ccc1-c1c(C)n(C)cc(C(=O)Nc2ccc(Oc3ccnc4cc(C)c(F)nc34)c(F)c2)c1=O` [Compound 429, N-[3-fluoro-4-[(6-fluoro-7-methyl-1,5-naphthyridin-4-yl)oxy]phenyl]-5-(4-fluoro-2-methylphenyl)-1,6-dimethyl-4-oxopyridine-3-carboxamide], the IC50 in experiment [1] and in experiment [2] was < 100 nM throughout.

As for `Cc1cc(F)ccc1-c1c(C)nc(C)c(C(=O)Nc2ccc(Oc3ccnc4cc(C)c(F)nc34)c(F)c2)c1O` [Compound 428, N-[3-fluoro-4-[(6-fluoro-7-methyl-1,5-naphthyridin-4-yl)oxy]phenyl]-5-(4-fluoro-2-methylphenyl)-4-hydroxy-2,6-dimethylpyridine-3-carboxamide], the 50% inhibitory concentration (IC50) in experiment [1] and in experiment [2] was < 100 nM each time.

`COc1cc2nccc(Oc3ccc(NC(=O)c4c5n(cc(-c6ccc(F)cc6)c4=O)CCC5)cc3F)c2cc1OC` [Compound 409, N-[4-(6,7-dimethoxyquinolin-4-yl)oxy-3-fluorophenyl]-6-(4-fluorophenyl)-7-oxo-2,3-dihydro-1H-indolizine-8-carboxamide]: the half-maximal inhibitory concentration (IC50) in experiment [1] and in experiment [2] was < 100 nM in each case.

With `COc1cc2nccc(Oc3ccc(NC(=O)c4cnc(C)c(-c5ccc(F)cc5C)c4O)cc3F)c2nc1OCCCN1CCOCC1` [Compound 425, N-[3-fluoro-4-[[7-methoxy-6-(3-morpholin-4-ylpropoxy)-1,5-naphthyridin-4-yl]oxy]phenyl]-5-(4-fluoro-2-methylphenyl)-4-hydroxy-6-methylpyridine-3-carboxamide], the 50% inhibitory concentration (IC50) in experiment [1] and in experiment [2] was < 100 nM in each case.

As for `COc1cc2nccc(Oc3ccc(NC(=O)c4cn(C(C)(C)C)cc(-c5ccc(F)cc5)c4=O)cc3F)c2nc1OC` [Compound 48, 1-tert-Butyl-N-[4-[(6,7-dimethoxy-1,5-naphthyridin-4-yl)oxy]-3-fluorophenyl]-5-(4-fluorophenyl)-4-oxopyridine-3-carboxamide], the IC50 in experiment [1] and in experiment [2] was < 100 nM each time.

For the compound `COc1cc2nccc(Oc3ccc(NC(=O)c4cn(-c5cc[nH]n5)cc(-c5ccc(F)cc5)c4=O)cc3F)c2nc1OC` [Compound 61, N-[4-[(6,7-Dimethoxy-1,5-naphthyridin-4-yl)oxy]-3-fluorophenyl]-5-(4-fluorophenyl)-4-oxo-1-(1H-pyrazol-3-yl)pyridine-3-carboxamide], the IC50 in experiment [1] and in experiment [2] was < 100 nM throughout.

As for `COc1nc2c(Oc3ccc(NC(=O)c4c(C)nc(C)c(-c5ccc(F)cc5)c4O)cc3F)ccnc2cc1O` [Compound 431, N-[3-fluoro-4-[(7-hydroxy-6-methoxy-1,5-naphthyridin-4-yl)oxy]phenyl]-5-(4-fluorophenyl)-4-hydroxy-2,6-dimethylpyridine-3-carboxamide], the IC50 in experiment [1] and in experiment [2] was < 100 nM in each case.

For the compound `COc1cc2nccc(Oc3ccc(NC(=O)c4cn(CC(F)(F)F)c(C)c(-c5ccc(F)cc5)c4=O)cc3F)c2nc1OC` [Compound 74, N-[4-[(6,7-Dimethoxy-1,5-naphthyridin-4-yl)oxy]-3-fluorophenyl]-5-(4-fluorophenyl)-6-methyl-4-oxo-1-(2,2,2-trifluoroethyl)pyridine-3-carboxamide], the half-maximal inhibitory concentration (IC50) in experiment [1] and in experiment [2] was < 100 nM each time.

Regarding `COc1cc2nccc(Oc3ccc(NC(=O)c4cn(-c5cnn(C(F)F)c5)cc(-c5ccc(F)cc5)c4=O)cc3F)c2nc1OC` [Compound 60, 1-[1-(Difluoromethyl)pyrazol-4-yl]-N-[4-[(6,7-dimethoxy-1,5-naphthyridin-4-yl)oxy]-3-fluorophenyl]-5-(4-fluorophenyl)-4-oxopyridine-3-carboxamide], the half-maximal inhibitory concentration (IC50) in experiment [1] and in experiment [2] was < 100 nM in each case.

Take `COc1ccc2nccc(Oc3ccc(NC(=O)c4ccc(C)n(-c5ccc(F)cc5)c4=O)cc3F)c2n1` [Compound 84, N-[3-Fluoro-4-[(6-methoxy-1,5-naphthyridin-4-yl)oxy]phenyl]-1-(4-fluorophenyl)-6-methyl-2-oxopyridine-3-carboxamide]: the 50% inhibitory concentration (IC50) in experiment [1] and in experiment [2] was < 100 nM throughout.

`COc1cc2nccc(Oc3ccc(NC(=O)c4cn(-c5ccn(C)n5)cc(-c5ccc(F)cc5)c4=O)cc3F)c2nc1OC` [Compound 53, N-[4-[(6,7-Dimethoxy-1,5-naphthyridin-4-yl)oxy]-3-fluorophenyl]-5-(4-fluorophenyl)-1-(1-methylpyrazol-3-yl)-4-oxopyridine-3-carboxamide]: the half-inhibitory concentration (IC50) in experiment [1] and in experiment [2] was < 100 nM each time.

As for `COc1cc2nccc(Oc3ccc(NC(=O)c4cnc(C)c(-c5ccc(F)cc5)c4O)cc3F)c2nc1OC(C)C` [Compound 415, N-[3-fluoro-4-[(7-methoxy-6-propan-2-yloxy-1,5-naphthyridin-4-yl)oxy]phenyl]-5-(4-fluorophenyl)-4-hydroxy-6-methylpyridine-3-carboxamide], the half-maximal inhibitory concentration (IC50) in experiment [1] and in experiment [2] was < 100 nM throughout.

`COc1cc2nccc(Oc3ccc(NC(=O)c4cc(C(C)=O)c(C)n(-c5ccc(F)cc5)c4=O)cc3F)c2nc1OC` [Compound 86, 5-Acetyl-N-[4-[(6,7-dimethoxy-1,5-naphthyridin-4-yl)oxy]-3-fluorophenyl]-1-(4-fluorophenyl)-6-methyl-2-oxopyridine-3-carboxamide]: the IC50 in experiment [1] and in experiment [2] was < 100 nM each time.

For `COc1cc2nccc(Oc3ncc(NC(=O)c4cn(-c5ccn(C)n5)cc(-c5ccc(F)cc5)c4=O)cc3F)c2cc1OC` [Compound 402, N-[6-(6,7-dimethoxyquinolin-4-yl)oxy-5-fluoropyridin-3-yl]-5-(4-fluorophenyl)-1-(1-methylpyrazol-3-yl)-4-oxopyridine-3-carboxamide], the concentration for half-maximal inhibition (IC50) in experiment [1] and in experiment [2] was < 100 nM each time.

In the case of `CCc1cnc2c(Oc3ccc(NC(=O)c4cnc(C)c(-c5ccc(F)cc5C)c4O)cc3F)ccnc2c1` [Compound 419, N-[4-[(7-ethyl-1,5-naphthyridin-4-yl)oxy]-3-fluorophenyl]-5-(4-fluoro-2-methylphenyl)-4-hydroxy-6-methylpyridine-3-carboxamide], the IC50 in experiment [1] and in experiment [2] was < 100 nM each time.

With `Cc1cc2nccc(Oc3ccc(NC(=O)c4cnc(C)c(-c5ccc(F)cc5)c4O)cc3F)c2nc1OCCCN1CCOCC1` [Compound 438, N-[3-fluoro-4-[[7-methyl-6-(3-morpholin-4-ylpropoxy)-1,5-naphthyridin-4-yl]oxy]phenyl]-5-(4-fluorophenyl)-4-hydroxy-6-methylpyridine-3-carboxamide], the IC50 in experiment [1] and in experiment [2] was < 100 nM in each case.

For the compound `CNc1c(-c2ccc(F)cc2)c(=O)c(C(=O)Nc2ccc(Oc3ccnc4cc(OC)c(OC)nc34)c(F)c2)cn1C` [Compound 76, N-[4-[(6,7-Dimethoxy-1,5-naphthyridin-4-yl)oxy]-3-fluorophenyl]-5-(4-fluorophenyl)-1-methyl-6-(methylamino)-4-oxopyridine-3-carboxamide], the IC50 in experiment [1] and in experiment [2] was < 100 nM each time.

With `CCc1cc2nccc(Oc3ccc(NC(=O)c4cnc(C)c(-c5ccc(F)cc5)c4O)cc3F)c2nc1OC` [Compound 420, N-[4-[(7-ethyl-6-methoxy-1,5-naphthyridin-4-yl)oxy]-3-fluorophenyl]-5-(4-fluorophenyl)-4-hydroxy-6-methylpyridine-3-carboxamide], the IC50 in experiment [1] and in experiment [2] was < 100 nM throughout.

On to `COc1cc2nccc(Oc3ccc(NC(=O)c4cnc(C)c(-c5ccc(F)cc5)c4O)cc3F)c2nc1OCCCN1CCOCC1` [Compound 424, N-[3-fluoro-4-[[7-methoxy-6-(3-morpholin-4-ylpropoxy)-1,5-naphthyridin-4-yl]oxy]phenyl]-5-(4-fluorophenyl)-4-hydroxy-6-methylpyridine-3-carboxamide], for which the IC50 in experiment [1] and in experiment [2] was < 100 nM throughout.

As for `COc1cnc2c(Oc3ccc(NC(=O)c4c(C)ncc(-c5ccc(F)cc5)c4O)cc3F)ccnc2c1` [Compound 80, N-[3-Fluoro-4-[(7-methoxy-1,5-naphthyridin-4-yl)oxy]phenyl]-5-(4-fluorophenyl)-4-hydroxy-2-methylpyridine-3-carboxamide], the IC50 in experiment [1] and in experiment [2] was < 100 nM throughout.

Regarding `CCc1cnc2c(Oc3ccc(NC(=O)c4cnc(C)c(-c5ccc(F)cc5)c4O)cc3F)ccnc2c1` [Compound 418, N-[4-[(7-ethyl-1,5-naphthyridin-4-yl)oxy]-3-fluorophenyl]-5-(4-fluorophenyl)-4-hydroxy-6-methylpyridine-3-carboxamide], the half-maximal inhibitory concentration (IC50) in experiment [1] and in experiment [2] was < 100 nM throughout.

Regarding `COc1cc2nccc(Oc3ncc(NC(=O)c4cn(-c5cnn(C)c5)cc(-c5ccc(F)cc5)c4=O)cc3F)c2cc1OC` [Compound 401, N-[6-(6,7-dimethoxyquinolin-4-yl)oxy-5-fluoropyridin-3-yl]-5-(4-fluorophenyl)-1-(1-methylpyrazol-4-yl)-4-oxopyridine-3-carboxamide], the concentration for half-maximal inhibition (IC50) in experiment [1] and in experiment [2] was < 100 nM each time.

A word on the IC50: it is the concentration at which inhibition is half-maximal.
